Laboratory results reported in patent publication US10696615B2, “Prenylated hydroxystilbenes” (The University of Sydney, priority 2011, dated 2020).

How the values were obtained:
Assay type in all cases: cell-based, human
COLO 205 = assay: NCI in vitro cancer screen, Colon Cancer; conditions: COLO 205
MDA-MB-468 = assay: NCI in vitro cancer screen, Breast Cancer; conditions: MDA-MB-468
SK-MEL-28 = assay: NCI in vitro cancer screen, Melanoma; conditions: SK-MEL-28
SF-295 = assay: NCI in vitro cancer screen, CNS Cancer; conditions: SF-295
RXF-393 = assay: NCI in vitro cancer screen, Renal Cancer; conditions: RXF-393
T-47D = assay: NCI in vitro cancer screen, Breast Cancer
786-0 = assay: NCI in vitro cancer screen, Renal Cancer; conditions: 786-0
SK-OV-3 = assay: NCI in vitro cancer screen, Ovarian Cancer; conditions: SK-OV-3
NCI-H460 = assay: NCI in vitro cancer screen, Non-Small Cell Lung Cancer; conditions: NCI-H460
OVCAR-8 = assay: NCI in vitro cancer screen, Ovarian Cancer; conditions: OVCAR-8
NCI-H23 = assay: NCI in vitro cancer screen, Non-Small Cell Lung Cancer; conditions: NCI-H23
HT29 = assay: NCI in vitro cancer screen, Colon Cancer; conditions: HT29
UACC-62 = assay: NCI in vitro cancer screen, Melanoma; conditions: UACC-62
HCT-116 = assay: NCI in vitro cancer screen, Colon Cancer; conditions: HCT-116
OVCAR-4 = assay: NCI in vitro cancer screen, Ovarian Cancer; conditions: OVCAR-4
LOX IMVI = assay: NCI in vitro cancer screen, Melanoma
DU-145 = assay: NCI in vitro cancer screen, Prostate Cancer; conditions: DU-145
M14 = assay: NCI in vitro cancer screen, Melanoma; conditions: M14
HOP-92 = assay: NCI in vitro cancer screen, Non-Small Cell Lung Cancer; conditions: HOP-92
UACC-257 = assay: NCI in vitro cancer screen, Melanoma; conditions: UACC-257
OVCAR-5 = assay: NCI in vitro cancer screen, Ovarian Cancer; conditions: OVCAR-5
ADR-RES (NCI/ADR-RES) = assay: NCI in vitro cancer screen, Ovarian Cancer
SNB-19 = assay: NCI in vitro cancer screen, CNS Cancer; conditions: SNB-19
SK-MEL-5 = assay: NCI in vitro cancer screen, Melanoma; conditions: SK-MEL-5
UO-31 = assay: NCI in vitro cancer screen, Renal Cancer; conditions: UO-31
HOP-62 = assay: NCI in vitro cancer screen, Non-Small Cell Lung Cancer; conditions: HOP-62
MOLT-4 = assay: NCI in vitro cancer screen, Leukemia; conditions: MOLT-4
K-562 = assay: NCI in vitro cancer screen, Leukemia; conditions: K-562
RPMI-8226 = assay: NCI in vitro cancer screen, Leukemia; conditions: RPMI-8226
SR = assay: NCI in vitro cancer screen, Leukemia
HL-60 (TB) = assay: NCI in vitro cancer screen, Leukemia; conditions: HL-60 (TB)
[1] = Homo sapiens, read-out: LC50 (the source's name)

## COc1cc(/C=C/c2cc(O)c(CC=C(C)C)c(O)c2)ccc1O [USYDS13, (E)-4-(3-methyl-2-buten-1-yl)-3,4′,5-trihydroxy-3′-methoxystilbene]
COLO 205
  TGI: 28.9 µM
COLO 205; Homo sapiens
  GI50: 15.6 µM
COLO 205; [1]
  CC50: 53.8 µM
MDA-MB-468; Homo sapiens
  GI50: 1.68 µM
MDA-MB-468; [1]
  CC50: > 100 µM
MDA-MB-468
  TGI: 7.63 µM
SK-MEL-28; Homo sapiens
  GI50: 5.64 µM
  LC50: 70.5 µM
SK-MEL-28
  TGI: 22.5 µM
SF-295; Homo sapiens
  GI50: 5.22 µM
SF-295; [1]
  CC50: 77.5 µM
SF-295
  TGI: 23.5 µM
RXF-393; Homo sapiens
  GI50: 5.48 µM
RXF-393; [1]
  CC50: 46.5 µM
RXF-393
  TGI: 18.9 µM
T-47D
  TGI: 14.7 µM
T-47D; Homo sapiens, T47D
  GI50: 2.92 µM
T-47D; Homo sapiens, T47D, read-out: LC50 (the source's name)
  CC50: 70.5 µM
786-0
  TGI: 24.5 µM
786-0; Homo sapiens
  GI50: 5.24 µM
  LC50 (50% net cell kill): > 100 µM
SK-OV-3; Homo sapiens
  GI50: 7.96 µM
SK-OV-3; [1]
  CC50: > 100 µM
SK-OV-3
  TGI: 36.2 µM
NCI-H460; Homo sapiens
  GI50: 3.09 µM
NCI-H460; [1]
  CC50: > 100 µM
NCI-H460
  TGI: 15.6 µM
OVCAR-8; Homo sapiens
  GI50: 5.48 µM
OVCAR-8; [1]
  CC50: > 100 µM
OVCAR-8
  TGI: 59.8 µM
NCI-H23; Homo sapiens
  GI50: 5.66 µM
  LC50: > 100 µM
NCI-H23
  TGI: 28.0 µM
HT29
  TGI: 36.9 µM
HT29; Homo sapiens, HT-29
  GI50: 17.8 µM
HT29; Homo sapiens, HT-29, read-out: LC50 (the source's name)
  CC50: 76.8 µM
UACC-62; Homo sapiens
  GI50: 5.3 µM
UACC-62; [1]
  CC50: 58.8 µM
UACC-62
  TGI: 19.7 µM
HCT-116
  TGI: 15.6 µM
HCT-116; Homo sapiens
  GI50: 4.33 µM
  LC50 (concentration killing 50% of cells): 45.6 µM
OVCAR-4; Homo sapiens
  GI50: 9.68 µM
OVCAR-4; [1]
  CC50: > 100 µM
OVCAR-4
  TGI: 74.8 µM
LOX IMVI
  TGI: 20.2 µM
LOX IMVI; Homo sapiens
  GI50: 4.48 µM
LOX IMVI; [1]
  CC50: 80 µM
DU-145
  TGI: 31.6 µM
DU-145; Homo sapiens
  GI50: 6.82 µM
DU-145; [1]
  CC50: > 100 µM
M14; Homo sapiens
  GI50: 4.92 µM
M14; [1]
  CC50: 51.6 µM
M14
  TGI: 18.5 µM
HOP-92
  TGI: 30.5 µM
HOP-92; Homo sapiens
  GI50: 5.96 µM
HOP-92; [1]
  CC50: > 100 µM
UACC-257; Homo sapiens
  GI50: 5.35 µM
UACC-257; [1]
  CC50: 44 µM
UACC-257
  TGI: 18.1 µM
OVCAR-5; Homo sapiens
  GI50: 13.9 µM
OVCAR-5; [1]
  CC50: > 100 µM
OVCAR-5
  TGI: 79.3 µM
ADR-RES (NCI/ADR-RES); ADR-RES
  TGI: >100 µM
ADR-RES (NCI/ADR-RES); Homo sapiens, NCI/ADR-RES
  GI50: 4.41 µM
ADR-RES (NCI/ADR-RES); Homo sapiens, NCI/ADR-RES, read-out: LC50 (the source's name)
  CC50: > 100 µM
SNB-19; Homo sapiens
  GI50: 8.02 µM
SNB-19; [1]
  CC50: 64.5 µM
SNB-19
  TGI: 24.2 µM
SK-MEL-5; Homo sapiens
  GI50: 2.5 µM
SK-MEL-5; [1]
  CC50: 29.2 µM
SK-MEL-5
  TGI: 8.54 µM
UO-31; Homo sapiens
  GI50: 4.16 µM
UO-31; [1]
  CC50: > 100 µM
UO-31
  TGI: 38.1 µM
HOP-62
  TGI: 20.4 µM
HOP-62; Homo sapiens
  GI50: 5.66 µM
HOP-62; [1]
  CC50: 53.7 µM
MOLT-4; Homo sapiens
  GI50: 2.95 µM
MOLT-4; [1]
  CC50: > 100 µM
MOLT-4
  TGI: 13.7 µM
K-562; Homo sapiens, K562
  GI50: 4.08 µM
K-562; Homo sapiens, K562, read-out: LC50 (the source's name)
  CC50: > 100 µM
K-562
  TGI: 57.5 µM
RPMI-8226; Homo sapiens
  GI50: 9.05 µM
RPMI-8226; [1]
  CC50: > 100 µM
RPMI-8226
  TGI: 51.6 µM
SR
  TGI: >100 µM
SR; Homo sapiens
  GI50: 2.8 µM
SR; [1]
  CC50: > 100 µM
HL-60 (TB)
  TGI: 17.1 µM
HL-60 (TB); Homo sapiens
  GI50: 2.55 µM
HL-60 (TB); [1]
  CC50: > 100 µM
